Measurements as given in patent publication US5198462A, “Heterocyclic amine, derivatives, their production and use” (Takeda Chemical Industries, Ltd., priority 1990, dated 1993).

Key:
[1] = target: T1, Acyl-CoA:cholesterol transferase (ACAT) (Rattus norvegicus, UniProt Q7TQM4); assay: Acyl-CoA:cholesterol transferase (ACAT)-inhibiting action; type: biochemical, Sprague-Dawley rats; conditions: 10^-6 M; microsomal fraction of mucosal cells from rat small intestines; labeled cholesterol ester formed from [1-14C]oleyl-CoA; read-out: ACAT inhibiting rate (%) 10^-6 M
T1 construct: prepared from the microsomal fraction of mucosal cells from the small intestines of 6-week old Sprague-Dawley rats; from tissue; host or cells: microsomal fraction of small-intestinal mucosal cells, Sprague-Dawley rats
T1 sequence (Q7TQM4 1-524): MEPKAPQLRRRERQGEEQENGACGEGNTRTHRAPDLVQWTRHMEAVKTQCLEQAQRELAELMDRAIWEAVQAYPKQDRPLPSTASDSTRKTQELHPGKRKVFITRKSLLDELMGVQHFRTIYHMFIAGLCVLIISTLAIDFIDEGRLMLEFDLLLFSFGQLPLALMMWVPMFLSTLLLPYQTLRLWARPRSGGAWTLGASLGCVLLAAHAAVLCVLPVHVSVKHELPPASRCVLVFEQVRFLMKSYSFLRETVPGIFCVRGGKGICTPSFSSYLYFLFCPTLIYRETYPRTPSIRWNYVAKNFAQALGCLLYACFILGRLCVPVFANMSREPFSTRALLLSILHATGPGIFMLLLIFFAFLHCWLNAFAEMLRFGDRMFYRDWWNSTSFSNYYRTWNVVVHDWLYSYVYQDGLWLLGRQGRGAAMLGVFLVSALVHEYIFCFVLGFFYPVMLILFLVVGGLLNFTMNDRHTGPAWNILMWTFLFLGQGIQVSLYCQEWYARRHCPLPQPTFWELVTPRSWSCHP
Procedure: The enzyme specimen ACAT was prepared from the microsomal fraction of mucosal cells from the small intestines of 6-week old Sprague-Dawley rats fasted for 20 hours, in accordance with the method described by Heider, et al. on Journal of Lipid Research, Vol. 24, p. 1127 (1982).
The activity of ACAT was calculated by determining the amount of labeled cholesterol ester formed from [1-^14 C]oleyl-CoA and endogenous cholesterol.
In Table 1, the inhibition rate (%) of formation of labeled cholesterol ester by the addition of test compounds (representing the compounds obtained by the following Working Examples 1 to 31) in an amount of 10^-6 M is shown as the index of the action of inhibiting ACAT.

[2] = Plasma cholesterol lowering activity in cholesterol fed rat; type: in vivo, Sprague-Dawley rats; conditions: 4 days, 1% cholesterol diet, n=5, mean ± standard deviation, *p < 0.05 vs. control (control 191.0 ± 25.6)
Procedure: 7-week old, male Sprague-Dawley rats were fed a 1% cholesterol diet (containing 0.5% cholic acid and 5% olive oil) for three days, and then the rats were grouped according to the plasma cholesterol level (n=5). They were fed with the diet as described above containing test compound for further 4 days. Blood was collected from the rats during 8:30-10:00 am at the fed state, and the plasma cholesterol level was measured enzymatically. The amount of test compound consumed by rats was calculated on the basis of the amount of the diet consumed by the rats.

Compound | inhibition at 1 µM [1] [%] | Cholesterol in Serum ([2]; dose 0.13 mg/kg/day in diet) [mg/dL] | Cholesterol in Serum ([2]; dose 0.14 mg/kg/day in diet) [mg/dL]
CC(=O)Oc1c(C)cc(NC(=O)Nc2oc(=O)c3ccc(Cl)cc3c2-c2ccccc2)cc1C [Example 13, N-(6-Chloro-4-phenylisocoumarin-3-yl)-N'-(4-acetoxy-3,5-dimethylphenyl)urea] | 95.8 |  | 
COc1ccccc1-c1c(NC(=O)Nc2ccc(F)cc2F)oc(=O)c2ccccc12 [Example 15, N-[4-(2-Methoxyphenyl)isocoumarin-3-yl]-N'-(2,4difluorophenyl)urea] | 99.4 | 125.2 ± 22.6 | 
CC(=O)Oc1c(C)cc(NC(=O)Nc2oc(=O)c3ccc(F)cc3c2-c2ccc(F)cc2)cc1C [Example 17, N-[6-Fluoro-4-(4-fluorophenyl)isocoumarin-3-yl]-N'-(4-acetoxy-3,5-dimethylphenyl)urea] | 65.7 |  | 
CC(=O)Oc1c(C)cc(NC(=O)NC2=C(c3ccccc3)c3ccccc3CS2)cc1C [Example 26, N-(4-acetoxy-3,5-dimethylphenyl)-N'-(4-phenyl-1H-2-benzothiopyran-3-yl)urea] | 94.8 |  | 
COc1ccccc1C1=C(NC(=O)Nc2ccc(N(C)C)cc2)SCc2ccccc21 [Example 28, N-(4-Dimethylaminophenyl)-N'-[4-(2-methoxyphenyl)-1H-2-benzothiopyran-3-yl]urea] | 92 |  | 
COc1ccccc1-c1c(NC(=O)Nc2cc(C)c(OC(C)=O)c(C)c2)oc(=O)c2ccccc12 [Example 14, N-[4-(2-Methoxyphenyl)isocoumarin-3-yl]-N'-(4-acetoxy-3,5-dimethylphenyl)urea] | 99 |  | 103.4 ± 23.7
O=C(Nc1ccc(F)cc1F)Nc1oc(=O)c2ccc(Cl)cc2c1-c1ccccc1 [Example 1, N-(6-Chloro-4-phenylisocoumarin-3-yl)-N'-(2,4-difluorophenyl)urea] | 98 |  | 
Cc1cc(NC(=O)NC2=C(c3ccccc3)c3ccccc3CS2)cc(C)c1O [Example 29, N-(4-Hydroxy-3,5-dimethylphenyl)-N'-(4-phenyl-1H-2-benzothiopyran-3-yl)urea] | 95.5 |  | 
O=C(Nc1ccc(F)cc1F)Nc1oc(=O)c2ccc(F)cc2c1-c1ccc(F)cc1 [Example 16, N-[6-Fluoro-4-(4-fluorophenyl)isocoumarin-3-yl]-N'-(2,4-difluorophenyl)urea] | 60.2 |  | 
Cc1ccc2c(=O)oc(NC(=O)Nc3ccc(F)cc3F)c(-c3ccc(F)cc3)c2c1 [Example 10, N-[4-(4-Fluorophenyl)-6-methylisocoumarin-3-yl]-N'-(2,4-difluorophenyl)urea] | 98.5 |  | 
COc1ccccc1-c1c(NC(=O)NC2CCCCC2)oc(=O)c2ccccc12 [Example 19, N-[4-(2-Methoxyphenyl)isocoumarin-3-yl]-N'-cyclohexylurea] | 97.7 |  | 
O=C(Nc1ccc(F)cc1F)Nc1oc(=O)c2ccccc2c1-c1ccc(F)cc1 [Example 11, N-[4-(4-Fluorophenyl)isocoumarin-3-yl]-N'-(2,4-difluorophenyl)urea] | 92.1 |  | 
Cn1c(NC(=O)Nc2ccc(F)cc2F)c(-c2cc(C(C)(C)C)c(O)c(C(C)(C)C)c2)c2ccccc2c1=O [Example 23, N-[4-(3,5-Di-t-butyl-4-hydroxyphenyl)-1,2-dihydro-2-methyl-1-oxoisoquinolin-3-yl-]-N'-(2,4-difluorophenyl)urea] | 54.3 |  | 
COc1ccccc1C1=C(NC(=O)Nc2cc(C)c(OC(C)=O)c(C)c2)SCc2ccccc21 [Example 27, N-(4-Acetoxy-3,5-dimethylphenyl)-N'-[4-(2-methoxyphenyl)-1H-2-benzothiopyran-3-yl]urea] | 99.3 |  | 
CC(C)(C)OC(=O)Nc1oc(=O)c2ccc(Cl)cc2c1-c1ccccc1 [Example 2, t-Butyl N-(6-chloro-4-phenylisocoumarin-3-yl) carbamate] | 76.1 |  | 
Cc1cc2c(-c3ccccc3C)c(NC(=O)Nc3ccc(F)cc3F)n(C)c(=O)c2cc1C [Example 8, N-[1,2-Dihydro-4-(2-methylphenyl)-2,6,7-trimethyl-1-oxoisoquinolin-3-yl]-N'-(2,4-difluorophenyl)urea] | 64.9 |  | 
CC(=O)Oc1c(C)cc(NC(=O)Nc2oc(=O)c3ccccc3c2-c2ccccc2)cc1C [Example 18, N-(4-Isocoumarin-3-yl)-N'-(4-acetoxy-3,5-dimethylphenyl)urea] | 83.2 |  | 
CCOC(=O)CNC(=O)Nc1oc(=O)c2ccccc2c1-c1ccccc1OC [Example 20, N-[4-(2-Methoxyphenyl)isocoumarin-3-yl]-N'-ethoxycarbonyl-methylurea] | 88.7 |  | 
O=C(Nc1ccc(F)cc1F)Nc1oc(=O)c2ccccc2c1-c1ccccc1 [Example 12, N-(4-Phenylisocoumarin-3-yl)-N'-(2,4-difluorophenyl)urea] | 94.2 |  | 
O=C(Nc1ccc(F)cc1F)Nc1oc(=O)c2cc(Cl)ccc2c1-c1ccccc1 [Example 9, N-(7-Chloro-4-phenylisocoumarin-3-yl)-N'-(2,4-difluorophenyl)urea] | 89.8 |  | 
